Data on three substances can be found in patent publication US11220534B2, “Treatment of neurological diseases” (Lancaster University Business Enterprises Limited, priority 2016, dated 2022).

Where no end group is shown, it is not given here. [ ]: non-standard residue; d: D form. Aib = CC(C)(N)C(=O)O

For experiment [1], the system named is MPTP mouse model of Parkinson's disease. The note with it: cited from earlier work.
The test system of experiment [2] is C57BL/6 mice given MPTP. The experiment in a line: Immunohistochemistry for TH in the substantia nigra pars compacta, MPTP Parkinson mouse model. Type of experiment: in vivo. The note with it: 10 nmol/kg i.p. once daily for 2 weeks, FIG. 4, N=6 per group. An excerpt: (§1) A standard model to induce Parkinson like symptoms in mice is the injection of the chemical (MPTP) (Li et al., 2009). This chemical impairs or kills neurons in the brain that produce dopamine. The mice develop motor impairments, and the dopaminergic neurons in the brain are reduced in numbers and function. The enzyme tyrosine hydroxylase (TH) is required to synthesise dopamine. A loss of TH signifies a loss of dopamine production (Harkavyi et al., 2008).
Adult male C57BL/6 mice were given the dopaminergic toxin MPTP (20 mg/kg in 0.1 mL of PBS i.p. at 2-h intervals of 4 doses MPTP; Sigma) or vehicle (PBS) for one day. […]
Immunohistochemistry for TH in the Substantia Nigra Pars Compacta and the Striatum Six animals per group were analysed for expression of tyrosine hydroxylase (TH), a marker for dopamine production. Coronal brain sections (20 μm) from striatum (bregma […]) and SNpc (bregma […]) were analysed by immunohistochemistry using antibodies recognising TH.
Sections were cut on a cryostat and postfixed in 4% paraformaldehyde, washed in PBS, treated with 0.3% H2O2 in methanol for 20 min, and washed again. […] For each animal, three tissue sections from one level of striatum were stained and analysed for TH-positive fibre innervation. […] Two tissue sections from each level were quantified by immunohistochemistry. […]

Experiment [3] relates to APP/PS1 transgenic mice. The experiment in a line: Immunohistochemical measurement of beta-amyloid plaque load in the cortex of APP/PS1 transgenic mice. The class given is in vivo. The source says:
(§2) Animal models have been developed to test novel drugs. A standard model for Alzheimer's disease is transgenic mice that express human mutated genes for amyloid production that are known to induce Alzheimer's disease in humans. These APP/PS1 transgenic mice recapitulate some of the symptoms of Alzheimer's disease such as the aggregation of amyloid in the brain, memory loss and the loss of synapses (Radde et al., 2006).
(§3) The APP/PS1 mice express human Swedish mutated APP and human mutated presenilin-1 which induce Alzheimer's Disease in humans.
(§4) The dose of peptide tested was 10 nmol/kg body weight. The peptides were administered by a once-daily intraperitoneal injection for 8 weeks. Saline injections were administered as a control. Six animals per group were injected with a peptide or a saline control.
Animals (6 per group) were perfused transcardially with 30 ml of ice-cold PBS and 30 ml of ice-cold 4% paraformaldehyde to postfix the brain. The brains were removed and placed in fresh 30% sucrose solution in PBS to cryoprotect tissue and cut at a thickness of 40 μm on a cryostat. Sections were chosen according to stereological rules, with the first section taken at random and every 5th section afterwards. Between 7 and 13 sections were analysed per brain.
Immunostaining techniques were used to assess the neuronal plaque load (anti beta-amyloid rabbit polyclonal antibody (1:200, rabbit polyclonal-Invitrogen 71-5800) and of synaptophysin (polyclonal rabbit anti-synaptophysin primary antibody, 1:2000, Abcam, Cambridge, UK) to measure the amount of synapses in the cortex. Brain samples were first exposed to 99% formic acid for 7 minutes and then washed 3 times for 10 minutes in TBS. Pre-treatment with 99% formic acid is known to drastically increase the detection of beta-Amyloid in formalin-fixed brain samples. Then samples were incubated in 0.3% H2O2 (Sigma Aldrich; Cat.-No.: 516813) in TBS for 30 minutes on the shaker to deplete endogenous peroxides activity, and were 3 times washed in TBS for 10 minutes afterwards.
To increase permeability of membranes in the brain tissue, samples were exposed to 0.3% Triton X-100 (Sigma Aldrich; Cat.-No.: 516813) in TBS for 10 minutes on the shaker. Unspecific proteinophilic binding in the tissue was saturated by incubating the samples with 5% goat serum (Gibco; Cat.-No.: 16210-064) in TBS for 30 minutes on the shaker.
A primary antibody against beta-Amyloid or synaptophysin was added and incubated overnight on the shaker at 4° C. The antibody was polyclonal and raised against a synthetic beta-Amyloid 1-43 peptide in rabbit. The primary antibody was used in a final dilution of 1 to 250 in TBS containing 2% goat serum and […]. […]

Experiment [4] has as its system C57BL/6 mice given MPTP. The experiment in a line: Rotarod motor control test in the MPTP Parkinson mouse model. The note with it: 10 nmol/kg i.p. once daily for 2 weeks, FIG. 3, N=6 per group. Type of experiment: in vivo.
Excerpt: as §1
Adult male C57BL/6 mice were given the dopaminergic toxin MPTP (20 mg/kg in 0.1 mL of PBS i.p. at 2-h intervals of 4 doses MPTP; Sigma) or vehicle (PBS) for one day. This treatment selectively affects dopaminergic neurons and induces Parkinson-like symptoms in mice.
The dose of peptide tested was 10 nmol/kg body weight. The peptides were administered by a once-daily intraperitoneal injection for 2 weeks. Saline injections were administered as a control. Six animals per group were injected with a peptide or a saline control.
The rotarod consists of a rotating pole that accelerates over time. Mice are placed on the rod, and motor skills are tested by accelerating the rotation. As the rotation increases, animals lose grip and fall on a cushion located below the rod. […] Each animal's endurance time was recorded, and the average was calculated. Data were analysed using a one-way ANOVA with post-hoc Bonferroni tests.
(Falling from the rotarod earlier than controls is read as motor impairment.)

Experiment [5] deals with APP/PS1 transgenic mice. The experiment in a line: Immunohistochemical measurement of synaptic densities (synaptophysin) in the cortex of APP/PS1 transgenic mice. Type of experiment: in vivo. The note with it: 10 nmol/kg i.p. once daily for 8 weeks, FIG. 2, N=6 per group.
Excerpt: as §2, §3, §4
Animals (6 per group) were perfused transcardially with 30 ml of ice-cold PBS and 30 ml of ice-cold 4% paraformaldehyde to postfix the brain. The brains were removed and placed in fresh 30% sucrose solution in PBS to cryoprotect tissue and cut at a thickness of 40 μm on a cryostat. Sections were chosen according to stereological rules, with the first section taken at random and every 5th section afterwards. Between 7 and 13 sections were analysed per brain. […]

For experiment [6], the system named is APP/PS1 mouse model of AD. The note with it: 12 months old APP/PS1 mice; cited from earlier work.

As to lixisenatide, in experiment [1], the “motor impairment, chronic inflammation in the brain and loss of dopaminergic neurons induced by MPTP” value was “good effects in preventing the motor impairment, chronic inflammation in the brain, and loss of dopaminergic neurons”.
On to “YXEGTFTSDYSIYLDKQAAXEFVNWLLAGGPSSGAPPPSKKKKKK-NH2 (Y[Aib]EGTFTSDYSIYLDKQAA[Aib]EFVNWLLAGGPSSGAPPPSKKKKKK-NH2) [DA4, No. 11; X=aminoisobutyric acid]”, for which the “MPTP-induced reduction of TH in the substantia nigra, pars compacta (protection of dopaminergic neurons)” value in the experiment on C57BL/6 mice given MPTP [2] is “protected dopaminergic neurons at a greater rate than the single GIP and GLP-1 analogues”. For the same substance, the “beta-amyloid plaque load in the cortex (% area positive for beta amyloid in cross sections of the brain cortex)” value with APP/PS1 transgenic mice [3] (10 nmol/kg body weight, once-daily intraperitoneal injection for 8 weeks, FIG. 1, N=6 per group) is on record as “reduces beta-amyloid plaque load”. In addition, the “beta-amyloid plaque load compared with the single GIP or GLP-1 analogues” value in the experiment on APP/PS1 transgenic mice [3] (10 nmol/kg i.p. once daily for 8 weeks, FIG. 1) is “superior to the single GIP or GLP-1 analogues”. The “impairment of motor skills (rotarod endurance time)” value with C57BL/6 mice given MPTP [4] is given as “protect mice from an impairment of motor skills induced by MPTP”. Besides, the “synapse loss / synaptic densities in the cortex” value with APP/PS1 transgenic mice [5] is listed as “protected from synapse loss”.
For D-Ala^2-GIP, in experiment [6], the amyloid plaque load entry is reported as “much reduced”; the “synaptic plasticity in area CA1 of the hippocampus and spatial memory formation” value is “unimpaired”. Also, in experiment [1], the “motor impairment, chronic inflammation in the brain and loss of dopaminergic neurons induced by MPTP” value is “protective and prevented the impairment of motor activity, the loss of dopaminergic neurons, loss of synapses and the chronic inflammation response induced by MPTP”.
